Results on 25 compounds are retold here after US7049443B2, “Amide-containing compound having improved solubility and method of improving the solubility of an amide-containing compound” (Pharmacia & Upjohn Company, priority 2001, dated 2006).

For orientation: melting point means the temperature, or range, at which the solid turns liquid.

Where “and” joins values, the source holds several entries; their conditions need not be identical. Equal values may be shown once.

As to `NC(=O)[C@H]1CN(c2ccc([C@H]3CC[S@+]([O-])CC3)cc2)C(=O)O1` (racemic) [Example 460, (SR)-3-[4-(trans-tetrahydro-1-oxido-2H-thiopyran-4-yl)phenyl]-2-oxo-5-oxazolidinecarboxamide], the melting point was 174 to 175 °C.

Consider `NC(=O)[C@H]1CN(c2ccc(C3CCS(=O)(=O)CC3)cc2)C(=O)O1` [Example 458, (5R)-(−)-3-[4-(tetrahydro-2H-thiopyran-4-yl)phenyl]-2-oxo-5-oxazolidinecarboxamide S,S-dioxide], for which the melting point was 211 to 212 °C.

With `CCCNC(=O)[C@H]1CN(c2ccc(N3CCOCC3)c(F)c2)C(=O)O1` [Example 438, (5R)-(−)-3-[3-Fluoro-4-(4-morpholinyl)phenyl]-N-propyl-2-oxo-5-oxazolidinecarboxamide], the melting point fell in the range of 165 to 167 °C.

For `NC(=O)[C@H]1CN(c2ccc(N3CCN(C(=O)CO)CC3)c(F)c2)C(=O)O1` [Example 448, (5R)-(−)-3-[3-Fluoro-4-[4-(hydroxyacetyl)-1-piperazinyl]phenyl]-2-oxo-5-oxazolidinecarboxamide], the melting point was 232 to 235 °C (dec.).

Regarding `CONC(=O)[C@H]1CN(c2ccc(N3CCOCC3)c(F)c2)C(=O)O1` [Example 439, (5R)-(−)-3-[3-Fluoro-4-(4-morpholinyl)phenyl]-N-methoxy-2-oxo-5-oxazolidinecarboxamide], the melting point was 206 to 208 °C (dec.).

Regarding `NC(=O)[C@H]1CN(c2ccc(N3CC[S+]([O-])CC3)c(F)c2)C(=O)O1` [Example 454, (5R)-(−)-3-[3-Fluoro-4-(thiomorpholin-4-yl)phenyl]-2-oxo-5-oxazolidinecarboxamide S-oxide], the melting point is 264 to 266 °C (dec.).

Regarding `NC(=O)[C@H]1CN(c2ccc([C@H]3CC[S@+]([O-])CC3)c(F)c2)C(=O)O1` [Example 457, (5R)-3-[3-Fluoro-4-(trans-tetrahydro-1-oxido-2H-thiopyran-4-yl)phenyl]-2-oxo-5-oxazolidinecarboxamide], the melting point is 201 to 203 °C.

With `NC(=O)[C@H]1CN(c2ccc(C3=CCOCC3)c(F)c2)C(=O)O1` [Example 443, (5R)-(−)-3-[4-(3,6-Dihydro-2H-pyran-4-yl)-3-fluorophenyl]-2-oxo-5-oxazolidinecarboxamide], the melting point lay within 164 to 169 °C.

On to `NC(=O)[C@H]1CN(c2cc(F)c(N3CC[S+]([O-])CC3)c(F)c2)C(=O)O1` [Example 455, (5R)-(−)-3-[3,5-Difluoro-4-(thiomorpholin-4-yl)phenyl]-2-oxo-5-oxazolidinecarboxamide S-oxide], for which the melting point was 273 to 276 °C (dec.).

Take `C=CCNC(=O)[C@H]1CN(c2ccc(N3CCOCC3)c(F)c2)C(=O)O1` [Example 437, (5R)-(−)-3-[3-Fluoro-4-(4-morpholinyl)phenyl]-N-allyl-2-oxo-5-oxazolidinecarboxamide]: the melting point fell in the range of 167 to 169 °C.

Take `NC(=O)[C@H]1CN(c2ccc(C3=CC[S+]([O-])CC3)c(F)c2)C(=O)O1` (stereo partly drawn) [Example 445, (5R)-3-[4-(3,6-Dihydro-2H-thiopyran-4-yl)-3-fluorophenyl]-2-oxo-5-oxazolidinecarboxamide S-oxide]: the melting point is 182 to 184 °C (dec.).

As for `NC(=O)[C@H]1CN(c2ccc(C3CCOCC3)c(F)c2)C(=O)O1` [Example 444, (5R)-(−)-3-[4-(Tetrahydro-2H-pyran-4-yl)-3-fluorophenyl]-2-oxo-5-oxazolidinecarboxamide], the melting point lay within 153 to 156 °C.

For the compound `NC(=O)[C@H]1CN(c2ccc(N3CCS(=O)(=O)CC3)c(F)c2)C(=O)O1` [Example 453, (5R)-(−)-3-[3-Fluoro-4-(thiomorpholin-4-yl)phenyl]-2-oxo-5-oxazolidinecarboxamide S,S-dioxide], the melting point is 245 to 247 °C (dec.).

In the case of `NC(=O)[C@H]1CN(c2ccc(-c3ccncc3)c(F)c2)C(=O)O1` [Example 442, (5R)-(−)-3-[4-(4-Pyridyl)-3-fluorophenyl]-2-oxo-5-oxazolidinecarboxamide], the melting point was 256 to 259 °C (dec.).

For the compound `NC(=O)[C@H]1CN(c2ccc(-c3cccnc3)c(F)c2)C(=O)O1` [Example 441, (5R)-(−)-3-[4-(3-Pyridyl)-3-fluorophenyl]-2-oxo-5-oxazolidinecarboxamide], the melting point was 240 to 242 °C (dec.).

Consider `NC(=O)[C@H]1CN(c2ccc([C@H]3CC[S@@+]([O-])CC3)cc2)C(=O)O1` [Example 459, (5R)-3-[4-(cis-tetrahydro-1-oxido-2H-thiopyran-4-yl)phenyl]-2-oxo-S-oxazolidinecarboxamide], for which the melting point was 269 to 273 °C (dec.).

Consider `NC(=O)[C@H]1CN(c2cc(F)c(N3CCOCC3)c(F)c2)C(=O)O1` [Example 451, (5R)-(−)-3-[3,5-Difluoro-4-(4-morpholinyl)phenyl]-2-oxo-5-oxazolidinecarboxamide], for which the melting point lay in the range of 181 to 183 °C.

In the case of `CNC(=O)[C@H]1CN(c2ccc(N3CCOCC3)c(F)c2)C(=O)O1` [Example 436, (5R)-(−)-3-[3-Fluoro-4-(4-morpholinyl)phenyl]-N-methyl-2-oxo-5-oxazolidinecarboxamide], the melting point was 182 to 183 °C (dec.).

`O=C(NO)[C@H]1CN(c2ccc(N3CCOCC3)c(F)c2)C(=O)O1` [Example 440, (5R)-(−)-3-[3-Fluoro-4-(4-morpholinyl)phenyl]-N-hydroxy-2-oxo-5-oxazolidinecarboxamide] gave a melting point of 141 to 143 °C.

Regarding `NC(=O)[C@H]1CN(c2cc(F)c(N3CCS(=O)(=O)CC3)c(F)c2)C(=O)O1` [Example 449, (5R)-(−)-3-[4-(Thiomorpholin-4-yl)-3,5-difluorophenyl]-2-oxo-5-oxazolidinecarboxamide S,S-dioxide], the melting point is 245 to 248 °C (dec.).

Consider `NC(=O)[C@H]1CN(c2ccc([C@H]3CC[S@@+]([O-])CC3)c(F)c2)C(=O)O1` (racemic) [Example 456, (SR)-3-[3-Fluoro-4-(cis-tetrahydro-1-oxido-2H-thiopyran-4-yl)phenyl]-2-oxo-5-oxazolidinecarboxamide], for which the melting point is 279 to 281 °C (dec.).

`NC(=O)[C@H]1CN(c2ccc(C3=CCS(=O)(=O)CC3)c(F)c2)C(=O)O1` [Example 446, (5R)-(−)-3-[4-(3,6-Dihydro-2H-thiopyran-4-yl)-3-fluorophenyl]-2-oxo-5-oxazolidinecarboxamide S,S-dioxide] registered a melting point of 206 to 208 °C.

On to `NC(=O)[C@H]1CN(c2ccc(N3CCS(=O)(=O)CC3)cc2)C(=O)O1` [Example 452, (5R)-(−)-3-[4-(Thiomorpholin-4-yl)phenyl]-2-oxo-5-oxazolidinecarboxamide S,S-dioxide], for which the melting point lay in the range of 226 to 228 °C.

As for `NC(=O)[C@H]1CN(c2ccc(N3CCOCC3)c(F)c2)C(=O)O1` [Example 435, (5R)-(−)-3-[3-Fluoro-4-(4-morpholinyl)phenyl]-2-oxo-5-oxazolidinecarboxamide], the melting point is 185 to 187 °C (dec.).

Consider `NC(=O)[C@H]1CN(c2ccc(C3CCS(=O)(=O)CC3)c(F)c2)C(=O)O1` [Example 447, (5R)-(−)-3-[4-(Tetrahydro-2H-thiopyran-4-yl)-3-fluorophenyl]-2-oxo-5-oxazolidinecarboxamide S,S-dioxide], for which the melting point was 231 to 234 °C (dec.) and 229 to 231 °C (dec.).
